Experiments:
[1] = system: spinal nerve ligation (SNL) model; assay: Spinal nerve ligation (SNL) neuropathic pain model, von Frey paw withdrawal threshold; assay type: in vivo; settings: SNL rats; for maximum possible effect (MPE), withdrawal threshold: 3 h after administration
Description: The SNL model, also known as the Chung model, is a widely used animal model for studying neuropathic pain, a chronic pain condition resulting from nervous system damage. This model replicates human neuropathic pain, which can stem from nerve injuries due to conditions like diabetes, shingles, or spinal cord injury. In the SNL model, the L5 or L6 spinal nerve is surgically ligated to induce nerve injury, leading to the development of long-lasting neuropathic pain symptoms in the animal. Following the nerve injury, animals display pain-related behaviors that mirror those seen in human neuropathic pain conditions, such as allodynia and hyperalgesia. Behavioral assessments conducted 14 days after surgery evaluate the animal’s sensitivity to mechanical stimuli using Von Frey filaments to quantify pain responses and measure mechanical allodynia.
In this experiment, compound 29 was administered intraperitoneally at two different doses, 50 and 100 mg/kg, and its analgesic effects were assessed by measuring the 50% withdrawal threshold at multiple time points (1, 3, and 5 h post-administration) (Figure 3A). […]
Spinal nerve ligation (SNL) was performed following the method described by Kim and Chung. […] Following the surgery, the rats were returned to their cages and monitored during recovery.
Behavioral signs indicative of neuropathic pain (mechanical allodynia) were assessed in all rats for two weeks postoperatively. The paw withdrawal threshold (PWT) was measured using von Frey filaments (Stoelting, Wood Dale, IL, USA) and the up–down method. […] A brisk withdrawal or paw flinching was recorded as a positive response. […]
Figure 3 Antinociceptive effect of compound 29 on mechanical allodynia in SNL model rats. (A) The mechanical allodynia was induced by spinal nerve ligation and evaluated by measuring paw withdrawal thresholds in response to von Frey filament stimuli. […] The MPE was calculated using the following formula: MPE (%) = [(post-treated value − pre-treatment threshold) × 100]/(maximum possible threshold − pre-treatment threshold). Data are expressed as mean ± SEM. […]

formalin model = assay: Formalin test in mice (primary in vivo screening and ED50); set-up: species or system ICR male mice
Description: For primary screening, the synthesized compounds were administered to mice via intraperitoneal injection at a dose of 5 mg/kg using the formalin model. The percentage inhibition in the second phase, relative to the vehicle control (DMSO/cremophor EL/distilled water = 10:10:80), was calculated.
Each compound was assessed using four doses (0.1, 1, 5, and 10 mg/kg) by intraperitoneal injection.
ICR male mice weighing 23–25 g was purchased from Samtako Korea (Osan, Republic of Korea). ICR mice were housed four per cage in a room with 12 h light–dark cycles. The temperature and relative humidity of the room were maintained at 22 ± 2 °C and 50 ± 5%, respectively. Food and water were available ad libitum. The procedures for animal testing were approved by Medifron Animal Care and Use Committees (Approval number; Medifron 2019-9). Efforts were made to minimize animal suffering and to reduce the number of animals used.
Mice were randomly assigned to five groups (four per group) and single-dose drugs were administered by intraperitoneal injection. The formalin-induced licking paw test was modified from the method described by Dubuisson and Dennis. Each mouse was acclimated to an acrylic observation chamber for at least 30 min before the injection of formalin. Twenty microliters of 2% formalin were injected subcutaneously into the right side of the hind paw. Each mouse was then placed in an individual clear plastic observational chamber (15 × 15 × 15 cm, volume = […] or 3.375 L), and the pain response was recorded for a period of 30 min. The summation of time (in seconds) spent in licking and biting responses of the injected paw during each 5 min block was measured as an indicator of the pain response. The first period (early phase) was recorded 0–5 min after the injection of formalin, and the second period (late phase) was recorded 20–30 min after the injection. The test compound was administered intraperitoneally 30 min before the formalin injection at […]: 0.1, 1, 5, and 10 mg/kg. The vehicle was DMSO/Cremophor EL/distilled water (10/10/80). The data were expressed as the mean ± standard error of the mean (SEM). Statistical analysis was assessed by one-way analysis of variance (ANOVA) with Bonferroni’s post hoc test. Statistical significance was set at p-value < 0.05, with values of p <0.001 considered highly significant.

Adrenergic α2A = molecular target: T1, Adrenergic α2A (Homo sapiens, UniProt P08913); assay: Radioligand binding, [3H] Rauwolscine, Eurofins
T1 sequence (P08913 1-465): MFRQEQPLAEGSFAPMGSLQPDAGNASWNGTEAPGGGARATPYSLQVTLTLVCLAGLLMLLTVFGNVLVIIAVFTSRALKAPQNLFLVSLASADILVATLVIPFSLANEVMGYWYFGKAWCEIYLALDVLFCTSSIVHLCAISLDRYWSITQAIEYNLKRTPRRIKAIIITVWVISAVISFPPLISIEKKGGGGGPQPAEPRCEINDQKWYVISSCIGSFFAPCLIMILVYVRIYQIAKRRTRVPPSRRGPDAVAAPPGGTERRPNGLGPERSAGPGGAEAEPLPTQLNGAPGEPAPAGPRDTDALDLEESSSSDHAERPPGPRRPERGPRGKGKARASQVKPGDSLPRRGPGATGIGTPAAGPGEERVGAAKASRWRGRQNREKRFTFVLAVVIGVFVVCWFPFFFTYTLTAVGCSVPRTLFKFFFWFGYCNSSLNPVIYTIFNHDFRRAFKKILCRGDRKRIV

N#Cc1ccc2[nH]cc(C(=O)NCCN3CCN(c4ccc5ccccc5n4)CC3)c2c1 [Compound 29, 5-Cyano-N-(2-(4-(quinolin-2-yl)piperazin-1-yl)ethyl)-1H-indole-3-carboxamide]
maximum possible effect (MPE), withdrawal threshold ([1]; 50 mg/kg intraperitoneal): 24% | maximum possible effect (MPE), withdrawal threshold ([1]; 100 mg/kg intraperitoneal): 45% | time of most pronounced analgesic effect (Tmax) ([1]; 50 and 100 mg/kg intraperitoneal): 3 h | ED50 (formalin model; Mus musculus, ip, read-out: ED50 in the second phase of the formalin model): 0.78 mg/kg | activity in the first phase of the formalin model (formalin model; mice, intraperitoneal, first phase): relatively weak | nH (Hill coefficient) (Adrenergic α2A; Adrenergic α2A): 1.02 | Ki (Adrenergic α2A; Adrenergic α2A, Cheng and Prusoff): 4.11 µM | IC50 (Adrenergic α2A; Adrenergic α2A, human recombinant CHO-Ki cells): 8.22 µM | times the activity of reference compound yohimbine (Adrenergic α2A; ratio of Ki values): 0.25

From article PMC11859264, “Discovery of a Novel Multitarget Analgesic Through an In Vivo-Guided Approach” (Pharmaceuticals, 2025)
